Experimental findings from ChEMBL document CHEMBL2346550, “Synthesis of novel azo compounds containing 5(4H)-oxazolone ring as potent tyrosinase inhibitors” (Bioorg Med Chem, 2013) are described below.

Series [1] in a line: Cytotoxicity against mouse B16F10 cells assessed as cell viability at 20 ug/ml after 72 hrs by micro-culture MTT assay. Type of series: cell-based, B16-F10. Conditions: read-out: Activity. Background: Formazan colour is commonly taken as a measure of viable cells.
Another series has as its target T1, Tyrosinase (Agaricus bisporus, UniProt O42713).
T1 sequence (O42713 whole entry): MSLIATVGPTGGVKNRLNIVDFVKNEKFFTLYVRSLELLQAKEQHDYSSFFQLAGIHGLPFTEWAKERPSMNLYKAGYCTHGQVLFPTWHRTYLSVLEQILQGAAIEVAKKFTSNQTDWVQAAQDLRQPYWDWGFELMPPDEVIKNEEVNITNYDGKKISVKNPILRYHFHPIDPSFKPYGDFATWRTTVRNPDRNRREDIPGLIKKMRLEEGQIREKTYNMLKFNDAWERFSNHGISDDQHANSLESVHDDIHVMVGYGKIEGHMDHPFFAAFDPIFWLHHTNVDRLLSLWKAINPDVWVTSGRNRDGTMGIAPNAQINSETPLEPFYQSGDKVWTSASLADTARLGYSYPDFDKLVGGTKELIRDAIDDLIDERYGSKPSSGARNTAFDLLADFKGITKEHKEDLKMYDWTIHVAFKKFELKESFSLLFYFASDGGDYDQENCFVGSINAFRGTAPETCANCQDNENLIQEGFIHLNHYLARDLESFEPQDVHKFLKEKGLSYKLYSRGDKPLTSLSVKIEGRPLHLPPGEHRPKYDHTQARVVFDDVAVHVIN
As to the kind of experiment: Inhibition of diphenolase activity of mushroom tyrosinase assessed as decrease in L-DOPA chrome formation using L-DOPA as substrate preincubated with enzyme for 10 mins prior to substrate addition measured for 10 mins by spectrophotometric assay.

For another series, the system named is B16-F10. As to the kind of experiment: Inhibition of melanin production in mouse B16F10 cells at 20 ug/ml after 72 hrs. Type of series: functional. The conditions noted are these: B16-F10, 72 h.

What is called IC50 is the concentration needed to halve the response being measured. As usually defined, the inhibition is the share of the control response that was lost under treatment. Low readings indicate a response near the control, high ones a response far below the control. Turning to `CC(=O)Oc1ccc2ccccc2c1/N=N/c1ccc(C2=N/C(=C/c3ccc(OC(F)(F)F)cc3)C(=O)O2)cc1`, the viability at 72 h, 20 ug/ml in series [1] was 68.7%. For the same molecule, at Tyrosinase, the IC50 stood at 3.04 µM. The inhibition at 20 µg/mL with B16-F10 was 35.6%.
For `CC(=O)Oc1ccc2ccccc2c1/N=N/c1ccc(C2=N/C(=C/c3ccc(F)cc3)C(=O)O2)cc1` the same measures were 66.7%, 3.91 µM and 32.5%.
For `CC(=O)Oc1c(/N=N/c2ccc(C3=N/C(=C/c4ccc(OC(F)(F)F)cc4)C(=O)O3)cc2)ccc2ccccc12`, in that order: 73.5%, 3.98 µM and 33.4%.
For `CN(C)c1ccc(/N=N/c2ccc(C3=N/C(=C/c4ccc(OC(F)(F)F)cc4)C(=O)O3)cc2)cc1` the same measures were 67.3%, 1.44 µM and 34.3%.
`CN(C)c1ccc(/N=N/c2ccc(C3=N/C(=C/c4ccc(F)cc4)C(=O)O3)cc2)cc1`: the viability at 72 h, 20 ug/ml in series [1] turned out to be 71.9%. The IC50 on Tyrosinase came to 2.01 µM. This molecule also had an inhibition at 20 µg/mL in the series with B16-F10 of 35.7%.
For `CC(=O)Oc1c(/N=N/c2ccc(C3=N/C(=C/c4ccc(F)cc4)C(=O)O3)cc2)ccc2ccccc12` the same measures were 72.1%, 4.33 µM and 31.3%.
